Starred links: 1 amine or outer side, 2 acyl side, 3 side chain; linkers in the order of their positions; H or OH if unused. Positions of bridges follow the written chain, without caps; N, C: chain ends. Non-standard residues stand in square brackets, D forms with d. Residues, ends and D or L forms follow the SMILES beside them. Hag = O=C([C@H](CCC=[*:3])N[*:1])[*:2]; Phe(3-F) = N[C@@H](Cc1cccc(F)c1)C(=O)O; AllylGly = C=CC[C@H](N)C(=O)O; Orn = NCCC[C@H](N)C(=O)O; Ac4c = NC1(C(=O)O)CCC1

In one test the target is T1, Menin/Histone-lysine N-methyltransferase MLL (Homo sapiens, UniProt O00255). In words: Inhibition of Menin-MLL protein-protein interaction (unknown origin) preincubated for 1 hr in presence of FLSN-MLL4-43 peptide followed by compound addition and measured after 1 hr by fluorescence polarization assay.
T1 sequence (O00255 whole entry): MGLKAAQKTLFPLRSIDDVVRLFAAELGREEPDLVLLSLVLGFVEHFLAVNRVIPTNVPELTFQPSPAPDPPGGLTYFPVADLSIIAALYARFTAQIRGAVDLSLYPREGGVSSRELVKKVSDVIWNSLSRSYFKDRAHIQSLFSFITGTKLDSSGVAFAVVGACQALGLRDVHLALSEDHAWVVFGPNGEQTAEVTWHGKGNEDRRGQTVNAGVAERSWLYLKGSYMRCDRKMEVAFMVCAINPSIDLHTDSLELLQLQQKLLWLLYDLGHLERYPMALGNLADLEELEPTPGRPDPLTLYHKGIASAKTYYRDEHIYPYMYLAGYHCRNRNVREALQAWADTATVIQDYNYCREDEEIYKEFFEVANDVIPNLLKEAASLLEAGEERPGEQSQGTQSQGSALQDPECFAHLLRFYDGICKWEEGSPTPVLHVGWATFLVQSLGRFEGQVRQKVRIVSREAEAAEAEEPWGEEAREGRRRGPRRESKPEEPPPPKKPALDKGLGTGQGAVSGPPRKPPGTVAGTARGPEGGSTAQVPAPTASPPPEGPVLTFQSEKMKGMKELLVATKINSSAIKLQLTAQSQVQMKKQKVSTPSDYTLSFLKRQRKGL
T1 sequence (Q03164 1-2718 partner limits assumed): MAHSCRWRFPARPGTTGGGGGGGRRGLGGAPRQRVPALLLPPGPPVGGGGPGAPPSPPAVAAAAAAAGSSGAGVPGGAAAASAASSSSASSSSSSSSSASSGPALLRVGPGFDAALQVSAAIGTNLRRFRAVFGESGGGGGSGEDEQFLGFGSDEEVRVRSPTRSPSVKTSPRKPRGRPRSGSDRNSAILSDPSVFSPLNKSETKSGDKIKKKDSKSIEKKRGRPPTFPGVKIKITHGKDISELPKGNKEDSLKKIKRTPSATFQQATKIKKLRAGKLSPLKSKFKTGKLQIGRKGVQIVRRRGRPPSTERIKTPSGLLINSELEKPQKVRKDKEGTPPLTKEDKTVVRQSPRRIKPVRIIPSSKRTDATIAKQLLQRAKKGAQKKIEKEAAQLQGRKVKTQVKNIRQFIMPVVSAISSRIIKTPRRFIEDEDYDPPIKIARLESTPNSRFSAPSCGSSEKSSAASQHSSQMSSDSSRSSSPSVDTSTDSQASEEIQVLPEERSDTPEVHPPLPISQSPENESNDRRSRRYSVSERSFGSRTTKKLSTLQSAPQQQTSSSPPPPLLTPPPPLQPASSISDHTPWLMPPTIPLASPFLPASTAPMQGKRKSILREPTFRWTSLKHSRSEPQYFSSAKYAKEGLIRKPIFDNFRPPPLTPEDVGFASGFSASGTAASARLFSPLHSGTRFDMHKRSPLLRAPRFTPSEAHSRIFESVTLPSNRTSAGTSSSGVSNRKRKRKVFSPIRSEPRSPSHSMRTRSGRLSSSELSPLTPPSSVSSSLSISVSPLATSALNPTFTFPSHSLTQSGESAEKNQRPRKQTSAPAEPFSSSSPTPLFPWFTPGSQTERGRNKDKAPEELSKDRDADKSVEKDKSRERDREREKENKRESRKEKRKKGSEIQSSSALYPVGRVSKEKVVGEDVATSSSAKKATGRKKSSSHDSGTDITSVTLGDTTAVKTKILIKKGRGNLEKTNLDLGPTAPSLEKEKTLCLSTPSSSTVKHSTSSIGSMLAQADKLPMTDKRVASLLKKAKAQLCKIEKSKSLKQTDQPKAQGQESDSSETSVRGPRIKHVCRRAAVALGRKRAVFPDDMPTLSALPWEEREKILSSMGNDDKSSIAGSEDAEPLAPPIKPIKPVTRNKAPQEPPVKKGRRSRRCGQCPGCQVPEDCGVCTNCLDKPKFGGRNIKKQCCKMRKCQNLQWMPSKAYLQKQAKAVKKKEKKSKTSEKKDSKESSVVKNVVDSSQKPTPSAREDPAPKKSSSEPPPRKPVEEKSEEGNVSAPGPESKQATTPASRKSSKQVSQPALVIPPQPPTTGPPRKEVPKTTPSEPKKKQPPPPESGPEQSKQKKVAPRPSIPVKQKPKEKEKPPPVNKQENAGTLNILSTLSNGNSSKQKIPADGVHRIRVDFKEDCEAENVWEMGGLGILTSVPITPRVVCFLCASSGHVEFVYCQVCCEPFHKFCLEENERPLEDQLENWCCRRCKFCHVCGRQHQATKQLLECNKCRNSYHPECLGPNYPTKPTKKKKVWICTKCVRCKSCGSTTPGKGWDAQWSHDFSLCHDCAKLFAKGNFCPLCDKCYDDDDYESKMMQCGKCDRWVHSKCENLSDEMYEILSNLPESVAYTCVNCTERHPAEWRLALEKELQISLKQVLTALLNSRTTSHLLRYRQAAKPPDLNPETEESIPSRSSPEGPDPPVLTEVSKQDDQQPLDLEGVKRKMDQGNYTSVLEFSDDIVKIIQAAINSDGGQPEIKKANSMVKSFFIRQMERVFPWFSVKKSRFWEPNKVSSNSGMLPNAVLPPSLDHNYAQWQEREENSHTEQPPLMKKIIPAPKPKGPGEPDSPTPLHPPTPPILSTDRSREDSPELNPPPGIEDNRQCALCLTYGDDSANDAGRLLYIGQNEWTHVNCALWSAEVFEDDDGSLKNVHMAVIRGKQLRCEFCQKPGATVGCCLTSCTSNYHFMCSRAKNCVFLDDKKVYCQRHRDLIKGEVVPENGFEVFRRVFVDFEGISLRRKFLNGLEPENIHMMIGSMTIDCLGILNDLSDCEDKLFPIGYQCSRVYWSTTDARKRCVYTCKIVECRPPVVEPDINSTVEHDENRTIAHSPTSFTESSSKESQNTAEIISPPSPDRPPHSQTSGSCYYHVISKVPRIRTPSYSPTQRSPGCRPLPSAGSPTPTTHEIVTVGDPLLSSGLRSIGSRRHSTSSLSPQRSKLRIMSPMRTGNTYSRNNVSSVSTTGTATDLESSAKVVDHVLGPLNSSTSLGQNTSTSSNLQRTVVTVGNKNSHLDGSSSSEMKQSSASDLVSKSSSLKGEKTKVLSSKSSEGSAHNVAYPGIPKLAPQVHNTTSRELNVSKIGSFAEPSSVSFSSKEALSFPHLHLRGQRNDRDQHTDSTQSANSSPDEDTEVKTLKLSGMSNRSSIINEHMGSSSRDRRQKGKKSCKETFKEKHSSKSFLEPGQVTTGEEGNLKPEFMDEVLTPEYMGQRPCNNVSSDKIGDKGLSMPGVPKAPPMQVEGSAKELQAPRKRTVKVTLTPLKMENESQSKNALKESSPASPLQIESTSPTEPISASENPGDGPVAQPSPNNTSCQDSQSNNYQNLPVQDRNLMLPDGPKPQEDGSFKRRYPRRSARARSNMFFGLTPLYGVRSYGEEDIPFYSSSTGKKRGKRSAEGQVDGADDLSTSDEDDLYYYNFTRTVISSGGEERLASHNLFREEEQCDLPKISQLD
T1 sequence (Q03164 2719-3969 partner limits assumed): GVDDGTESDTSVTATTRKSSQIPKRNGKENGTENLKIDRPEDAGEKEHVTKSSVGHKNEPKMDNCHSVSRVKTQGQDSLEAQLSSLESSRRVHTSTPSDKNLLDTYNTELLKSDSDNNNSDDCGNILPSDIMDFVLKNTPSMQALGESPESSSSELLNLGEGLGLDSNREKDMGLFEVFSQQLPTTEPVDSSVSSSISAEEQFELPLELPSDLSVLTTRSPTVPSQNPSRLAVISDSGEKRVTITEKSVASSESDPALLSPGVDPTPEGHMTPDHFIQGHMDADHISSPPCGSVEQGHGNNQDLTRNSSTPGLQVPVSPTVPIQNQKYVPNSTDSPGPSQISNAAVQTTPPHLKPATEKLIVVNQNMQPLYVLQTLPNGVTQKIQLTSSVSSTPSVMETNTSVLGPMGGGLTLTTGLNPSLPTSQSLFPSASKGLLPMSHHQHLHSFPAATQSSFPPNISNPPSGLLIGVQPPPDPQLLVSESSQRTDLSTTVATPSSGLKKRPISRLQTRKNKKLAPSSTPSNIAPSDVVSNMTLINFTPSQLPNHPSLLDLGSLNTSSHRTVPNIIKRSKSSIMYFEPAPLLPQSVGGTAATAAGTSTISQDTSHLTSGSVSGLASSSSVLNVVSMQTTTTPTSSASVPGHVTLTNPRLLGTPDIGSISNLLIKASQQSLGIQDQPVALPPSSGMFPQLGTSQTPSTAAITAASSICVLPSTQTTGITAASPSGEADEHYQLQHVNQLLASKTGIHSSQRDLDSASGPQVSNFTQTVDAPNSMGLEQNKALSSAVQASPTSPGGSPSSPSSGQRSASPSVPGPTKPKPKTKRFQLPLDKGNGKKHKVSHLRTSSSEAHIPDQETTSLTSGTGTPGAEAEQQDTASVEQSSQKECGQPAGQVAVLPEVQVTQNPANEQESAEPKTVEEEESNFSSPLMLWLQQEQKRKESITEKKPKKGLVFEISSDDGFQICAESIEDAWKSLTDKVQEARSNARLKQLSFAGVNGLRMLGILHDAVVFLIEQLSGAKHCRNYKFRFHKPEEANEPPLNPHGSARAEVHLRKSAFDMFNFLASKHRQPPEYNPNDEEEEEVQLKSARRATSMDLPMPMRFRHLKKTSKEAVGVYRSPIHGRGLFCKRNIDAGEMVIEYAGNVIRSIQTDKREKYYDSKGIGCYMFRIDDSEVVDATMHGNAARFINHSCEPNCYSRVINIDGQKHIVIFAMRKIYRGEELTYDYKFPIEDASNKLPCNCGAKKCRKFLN
In general, IC50 refers to the midpoint of a concentration-inhibition curve. Take `CC(=O)N[C@@H](C)C(=O)N[C@@H](CCCNC(=N)N)C(=O)N[C@@H](Cc1c[nH]c2ccccc12)C(=O)N[C@H]1CCCC[C@@H](C(=O)N2CCC[C@H]2C(=O)N[C@@H](CCCN)C(=O)N[C@@H](CCCNC(=N)N)C(=O)N[C@@H](CCCNC(=N)N)C(=O)N[C@@H](CCCNC(=N)N)C(N)=O)NC(=O)C2(CCC2)NC(=O)[C@@H]2CCCN2C(=O)[C@H](Cc2cccc(F)c2)NC1=O`: the IC50 is 4.6 nM.

Consider `CC(=O)N[C@@H](C)C(=O)N[C@@H](CCCNC(=N)N)C(=O)N[C@@H](Cc1c[nH]c2ccccc12)C(=O)N[C@H]1CCCC[C@@H](C(=O)N2CCC[C@H]2C(=O)N[C@@H](CCCN)C(=O)N[C@@H](CCCNC(=N)N)C(N)=O)NC(=O)C2(CCC2)NC(=O)[C@@H]2CCCN2C(=O)[C@H](Cc2cccc(F)c2)NC1=O`, for which the 50% inhibitory concentration (IC50) amounted to 14 nM. Same read-out and setting: then `CC(=O)N[C@@H](CO)C(=O)N[C@@H](C)C(=O)N[C@@H](CCCNC(=N)N)C(=O)N[C@@H](Cc1c[nH]c2ccccc12)C(=O)N[C@H]1CCCC[C@@H](C(=O)N2CCC[C@H]2C(=O)N[C@@H](CCCN)C(N)=O)NC(=O)C2(CCC2)NC(=O)[C@@H]2CCCN2C(=O)[C@H](Cc2cccc(F)c2)NC1=O`, with 569 nM. As for `CC(=O)N[C@@H](C)C(=O)N[C@@H](CCCNC(=N)N)C(=O)N[C@@H](Cc1c[nH]c2ccccc12)C(=O)N[C@H]1C/C=C\C[C@@H](C(=O)N2CCC[C@H]2C(=O)N[C@@H](CCCN)C(N)=O)NC(=O)C2(CCC2)NC(=O)[C@@H]2CCCN2C(=O)[C@H](Cc2cccc(F)c2)NC1=O` (Ac-ARW[AllylGly][Phe(3-F)]P[Ac4c][AllylGly]P[Orn]-NH2; staple (Z) 4-8), the half-maximal inhibitory concentration (IC50) turned out to be 1230 nM. Still for that read-out and setting: the result for `CC(=O)N[C@@H](C)C(=O)N[C@@H](CCCNC(=N)N)C(=O)N[C@@H](Cc1c[nH]c2ccccc12)C(=O)N[C@H]1C/C=C\C[C@@H](C(=O)N2CCC[C@H]2C(=O)N[C@@H](CCCN)C(=O)N[C@@H](CCCNC(=N)N)C(N)=O)NC(=O)C2(CCC2)NC(=O)[C@@H]2CCCN2C(=O)[C@H](Cc2cccc(F)c2)NC1=O` (Ac-ARW[AllylGly][Phe(3-F)]P[Ac4c][AllylGly]P[Orn]R-NH2; staple (Z) 4-8) reads 58 nM. Same read-out and setting: then `CC(=O)N[C@@H](C)C(=O)N[C@@H](CCCNC(=N)N)C(=O)N[C@@H](Cc1c[nH]c2ccccc12)C(=O)N[C@H]1C/C=C\C[C@@H](C(=O)N2CCC[C@H]2C(=O)N[C@@H](CCCN)C(=O)N[C@@H](CCCNC(=N)N)C(=O)N[C@@H](CCCNC(=N)N)C(=O)N[C@@H](CCCNC(=N)N)C(N)=O)NC(=O)C2(CCC2)NC(=O)[C@@H]2CCCN2C(=O)[C@H](Cc2cccc(F)c2)NC1=O` (Ac-ARW[AllylGly][Phe(3-F)]P[Ac4c][AllylGly]P[Orn]RRR-NH2; staple (Z) 4-8), with 2.35 nM; and `CC(=O)N[C@@H](CO)C(=O)N[C@@H](C)C(=O)N[C@@H](CCCNC(=N)N)C(=O)N[C@@H](Cc1c[nH]c2ccccc12)C(=O)N[C@H]1C/C=C\C[C@@H](C(=O)N2CCC[C@H]2C(=O)N[C@@H](CCCN)C(N)=O)NC(=O)C2(CCC2)NC(=O)[C@@H]2CCCN2C(=O)[C@H](Cc2cccc(F)c2)NC1=O` (Ac-SARW[AllylGly][Phe(3-F)]P[Ac4c][AllylGly]P[Orn]-NH2; staple (Z) 5-9), with 777 nM. Still for that read-out and setting: the result for Ac-RWRFPARPGTGRR-NH2 reads 49 nM.

Another test deals with T1, Menin/Histone-lysine N-methyltransferase MLL. The test can be described thus: Inhibition of Menin-MLL protein-protein interaction (unknown origin) preincubated for 1 hr in presence of FLSN-MBM1 peptide followed by compound addition and measured after 1 hr by fluorescence polarization assay. (In general: Fluorescence polarisation rises when a labelled molecule tumbles more slowly, as on binding a larger partner.)
With `CC(=O)N[C@@H](CO)C(=O)N[C@@H](C)C(=O)N[C@@H](CCCNC(=N)N)C(=O)N[C@@H](Cc1c[nH]c2ccccc12)C(=O)N[C@H]1CCCCCC[C@@H](C(=O)N2CCC[C@H]2C(=O)N[C@@H](CCCNC(=N)N)C(N)=O)NC(=O)[C@H](C)NC(=O)[C@@H]2CCCN2C(=O)[C@H](Cc2ccccc2)NC1=O`, the IC50 worked out at 660 nM.

Take `CC(=O)N[C@@H](CO)C(=O)N[C@@H](C)C(=O)N[C@@H](CCCNC(=N)N)C(=O)N[C@@H](Cc1c[nH]c2ccccc12)C(=O)N[C@H]1CCCC[C@@H](C(=O)N2CCC[C@H]2C(=O)N[C@@H](CCCNC(=N)N)C(N)=O)NC(=O)[C@H](C)NC(=O)[C@@H]2CCCN2C(=O)[C@H](Cc2ccccc2)NC1=O`: the half-maximal inhibitory concentration (IC50) was 122 nM. For the molecule `CC(=O)N[C@@H](C)C(=O)N[C@@H](CCCNC(=N)N)C(=O)N[C@@H](Cc1c[nH]c2ccccc12)C(=O)N[C@H]1C/C=C\C[C@@H](C(=O)N2CCC[C@H]2C(=O)N[C@@H](CCCNC(=N)N)C(N)=O)NC(=O)[C@H](C)NC(=O)[C@@H]2CCCN2C(=O)[C@H](Cc2ccccc2)NC1=O` (Ac-ARW[AllylGly]FPA[AllylGly]PR-NH2; staple (Z) 4-8), the half-maximal inhibitory concentration (IC50) turned out to be 151 nM. The same measure, in the same setting: then `CC(=O)N[C@@H](CCCNC(=N)N)C(=O)N[C@@H](Cc1c[nH]c2ccccc12)C(=O)N[C@H]1C/C=C\C[C@@H](C(=O)N2CCC[C@H]2C(=O)N[C@@H](CCCNC(=N)N)C(N)=O)NC(=O)[C@H](C)NC(=O)[C@@H]2CCCN2C(=O)[C@H](Cc2ccccc2)NC1=O` (Ac-RW[AllylGly]FPA[AllylGly]PR-NH2; staple (Z) 3-7), with 372 nM; and `CC(=O)N[C@@H](CO)C(=O)N[C@@H](C)C(=O)N[C@@H](CCCNC(=N)N)C(=O)N[C@@H](Cc1c[nH]c2ccccc12)C(=O)N[C@H]1C/C=C\C[C@@H](C(=O)N2CCC[C@H]2C(N)=O)NC(=O)[C@H](C)NC(=O)[C@@H]2CCCN2C(=O)[C@H](Cc2ccccc2)NC1=O` (Ac-SARW[AllylGly]FPA[AllylGly]P-NH2; staple (Z) 5-9), with 6800 nM; and `CC(=O)N[C@@H](CO)C(=O)N[C@@H](C)C(=O)N[C@@H](CCCNC(=N)N)C(=O)N[C@@H](Cc1c[nH]c2ccccc12)C(=O)N[C@H]1C/C=C\C[C@@H](C(=O)N2CCC[C@H]2C(=O)NCC(=O)N[C@H](C(N)=O)[C@@H](C)O)NC(=O)[C@H](C)NC(=O)[C@@H]2CCCN2C(=O)[C@H](Cc2ccccc2)NC1=O` (Ac-SARW[AllylGly]FPA[AllylGly]PGT-NH2; staple (Z) 5-9), with 41000 nM. Same read-out and setting: then `CC(=O)N[C@@H](CO)C(=O)N[C@@H](C)C(=O)N[C@@H](CCCNC(=N)N)C(=O)N[C@@H](Cc1c[nH]c2ccccc12)C(=O)N[C@H]1C/C=C\C[C@@H](C(=O)N2CCC[C@H]2C(=O)N[C@@H](CCCCN)C(N)=O)NC(=O)[C@H](C)NC(=O)[C@@H]2CCCN2C(=O)[C@H](Cc2ccccc2)NC1=O` (Ac-SARW[AllylGly]FPA[AllylGly]PK-NH2; staple (Z) 5-9), with 1390 nM; and `CC(=O)N[C@@H](CO)C(=O)N[C@@H](C)C(=O)N[C@@H](CCCNC(=N)N)C(=O)N[C@@H](Cc1c[nH]c2ccccc12)C(=O)N[C@H]1C/C=C\C[C@@H](C(=O)N2CCC[C@H]2C(=O)N[C@@H](CCCNC(=N)N)C(N)=O)NC(=O)[C@H](C)NC(=O)[C@@H]2CCCN2C(=O)[C@H](Cc2ccccc2)NC1=O` (Ac-SARW[AllylGly]FPA[AllylGly]PR-NH2; staple (Z) 5-9), with 770 nM. Same read-out and setting: the result for `CC(=O)N[C@@H](CO)C(=O)N[C@@H](C)C(=O)N[C@@H](CCCNC(=N)N)C(=O)N[C@@H](Cc1c[nH]c2ccccc12)C(=O)N[C@H]1C/C=C\C[C@@H](C(=O)N2CCC[C@H]2C(=O)N[C@@H](CCCNC(=N)N)C(=O)N[C@H](C(N)=O)[C@@H](C)O)NC(=O)[C@H](C)NC(=O)[C@@H]2CCCN2C(=O)[C@H](Cc2ccccc2)NC1=O` (Ac-SARW[AllylGly]FPA[AllylGly]PRT-NH2; staple (Z) 5-9) reads 1800 nM. For `CC(=O)N[C@@H](CO)C(=O)N[C@@H](C)C(=O)N[C@@H](CCCNC(=N)N)C(=O)N[C@@H](Cc1c[nH]c2ccccc12)C(=O)N[C@H]1C/C=C\C[C@@H](C(=O)N2CCC[C@H]2C(=O)N[C@@H](CCCN)C(N)=O)NC(=O)[C@H](C)NC(=O)[C@@H]2CCCN2C(=O)[C@H](Cc2ccccc2)NC1=O` (Ac-SARW[AllylGly]FPA[AllylGly]P[Orn]-NH2; staple (Z) 5-9), the half-inhibitory concentration (IC50) came to 142 nM. `CC(=O)N[C@@H](CO)C(=O)N[C@@H](C)C(=O)N[C@@H](CCCNC(=N)N)C(=O)N[C@@H](Cc1c[nH]c2ccccc12)C(=O)N[C@H]1C/C=C\CC[C@@H](C(=O)N2CCC[C@H]2C(=O)N[C@@H](CCCNC(=N)N)C(N)=O)NC(=O)[C@H](C)NC(=O)[C@@H]2CCCN2C(=O)[C@H](Cc2ccccc2)NC1=O` (Ac-SARW[AllylGly]FPA[Hag]PR-NH2; staple (Z) 5-9): the IC50 was 3000 nM. On the same count and under the same terms, the result for `CC(=O)N[C@@H](CO)C(=O)N[C@@H](C)C(=O)N[C@@H](CCCNC(=N)N)C(=O)N[C@@H](Cc1c[nH]c2ccccc12)C(=O)N[C@H]1C/C=C\C[C@@H](C(=O)N2CCC[C@H]2C(=O)N[C@@H](CCCNC(=N)N)C(N)=O)NC(=O)C2(CCC2)NC(=O)[C@@H]2CCCN2C(=O)[C@H](Cc2ccccc2)NC1=O` (Ac-SARW[AllylGly]FP[Ac4c][AllylGly]PR-NH2; staple (Z) 5-9) reads 83 nM. On the same count and under the same terms, the result for `CC(=O)N[C@@H](CO)C(=O)N[C@@H](C)C(=O)N[C@@H](CCCNC(=N)N)C(=O)N[C@@H](Cc1c[nH]c2ccccc12)C(=O)N[C@H]1C/C=C\C[C@@H](C(=O)N2CCC[C@H]2C(=O)N[C@@H](CCCNC(=N)N)C(N)=O)NC(=O)[C@H](C)NC(=O)[C@@H]2CCCN2C(=O)[C@H](Cc2cccc(F)c2)NC1=O` (Ac-SARW[AllylGly][Phe(3-F)]PA[AllylGly]PR-NH2; staple (Z) 5-9) reads 281 nM.

As to `CC(=O)N[C@@H](CO)C(=O)N[C@@H](C)C(=O)N[C@@H](CCCNC(=N)N)C(=O)N[C@@H](Cc1c[nH]c2ccccc12)C(=O)N[C@H]1CC/C=C\CC[C@@H](C(=O)N2CCC[C@H]2C(=O)N[C@@H](CCCNC(=N)N)C(N)=O)NC(=O)[C@H](C)NC(=O)[C@@H]2CCCN2C(=O)[C@H](Cc2ccccc2)NC1=O` (Ac-SARW[Hag]FPA[Hag]PR-NH2; staple (Z) 5-9), the IC50 stood at 1100 nM. With `CC(=O)N[C@@H](Cc1c[nH]c2ccccc12)C(=O)N[C@H]1C/C=C\C[C@@H](C(=O)N2CCC[C@H]2C(=O)N[C@@H](CCCNC(=N)N)C(N)=O)NC(=O)[C@H](C)NC(=O)[C@@H]2CCCN2C(=O)[C@H](Cc2ccccc2)NC1=O` (Ac-W[AllylGly]FPA[AllylGly]PR-NH2; staple (Z) 2-6), the IC50 was determined as 77700 nM. The same measure, in the same setting: the result for Ac-SARWAFPAAP-NH2 reads 19000 nM; that for Ac-SARWAFPAAPGT-NH2, 61300 nM; that for Ac-SARWAFPAAPRT-NH2, 1700 nM. Same read-out and setting: the result for Ac-SARWAFPAGPR-NH2 reads 1300 nM.

The record behind these values is ChEMBL document CHEMBL4765443, “Covalent and noncovalent constraints yield a figure eight-like conformation of a peptide inhibiting the menin-MLL interaction” (Eur J Med Chem, 2020).
